Patent US5808049A, “Stereospecific 5-fu esters and methods for preparing same” (Director-General of Agency of Industrial Science and …, priority 1994, dated 1998)

Tests used:
[1] = Stereoselective hydrolysis of anticancer agent esters with rat sarcoma cells XC; settings: rat, xc cells, pH 7.5
Experimental: (§1) Each of the reaction mixtures was prepared by dissolving 1 mg of the ester in 10 μl of ethanol, and by mixing with it, 90 μl of a 0.1M phosphoric acid buffer (having a pH of 7.5), plus one of the following: 100 μl of a cell suspension, or 20 or 30 μl of whole blood, or 50 μl of tissue homogenate. […] The cells numbers in 100 μl of the cell suspension used in the reaction were as follows: rat liver cancer cells Anr4=7×10^6 ; rat pancreas cancer cells ARIP=8×10^6 ; rat sarcoma cells XC=5×10^6 ; human histiocytic leukemia cells U937=1×10^7 ; human pancreas cancer cells MIA PaCa-2=8×10^6 ; and human intestinum crassum cancer cells Colo 320=1×10^7. Fifty μl of the tissue homogenate corresponded to 20 mg of wet tissue.
(§2) Each of these reaction mixtures was stirred for 12 hours at 30° C. by a magnetic stirrer; then 1.5 μl of 2N HCl was added, to bring the pH to about 2.5, and extraction with 1 ml of ethyl acetate in the presence of a saturated sodium chloride was carried out twice. The ethyl acetate layers of each sample were combined, the volume was adjusted to precisely 2 ml, and it was divided into 1.7 ml and 0.3 ml. The former was concentrated under reduced pressure, and the contained produced carboxylic acid was isolated by thin-layer preparative chromatography. A solution of diazomethane in ether was added to it, to methylate it, and the absolute configuration and the optical purity of the methylated product were determined by high-performance liquid chromatography using a chiral column. The latter 0.3 ml was directly methylated, and then it was concentrated and adjusted to 0.3 ml again, and the methyl ester of the contained produced carboxylic acid was determined quantitatively by gas chromatography, from which the hydrolyzed rate was determined. The column used in the high-performance liquid chromatography was a Chiralcell OJ or OD column (trade name; 4.6×250 mm) manufactured by Daicel; the elution was carried out by using a 10% 2-propanol/hexane mixture; and the flow velocity was 1 or 0.75 ml/min. The column used in the gas chromatography was a capillary column of OV-1 (0.25 mm×25 m), and the analysis temperature was 120° to 180° C.

rat sarcoma cells XC = assay: as above; settings: XC; 12 hours at 30° C., pH 7.5
Experimental: as §1, §2

[2] = Stereoselective hydrolysis of anticancer agent esters with rat whole blood; settings: pH 7.5
Experimental: as §1, §2

[3] = Stereoselective hydrolysis of anticancer agent esters with normal rat pancreas homogenate; settings: 12 hours at 30° C., pH 7.5
Experimental: as §1, §2

[4] = Stereoselective hydrolysis of anticancer agent esters with human pancreas cancer cells MIA PaCa-2; settings: human, mia paca-2 cells, pH 7.5
Experimental: as §1, §2

[5] = test system: human pancreas cancer cells MIA PaCa-2; assay: as above; settings: MIA PaCa-2; 12 hours at 30° C., pH 7.5
Experimental: as §1, §2

[6] = Stereoselective hydrolysis of anticancer agent esters with human whole blood; settings: pH 7.5
Experimental: as §1, §2

[7] = Stereoselective hydrolysis of anticancer agent esters with normal rat muscle homogenate; settings: 12 hours at 30° C., pH 7.5
[8] = Stereoselective hydrolysis of anticancer agent esters with rat pancreas cancer cells ARIP; settings: rat, arip cells, pH 7.5
Experimental: as §1, §2

[9] = test system: rat pancreas cancer cells ARIP; assay: as above; settings: ARIP; 12 hours at 30° C., pH 7.5
Experimental: as §1, §2

[10] = Stereoselective hydrolysis of anticancer agent esters with normal rat liver homogenate; settings: 12 hours at 30° C., pH 7.5
[11] = Stereoselective hydrolysis of anticancer agent esters with human histiocytic leukemia cells U937; settings: human, u937 cells, pH 7.5
Experimental: as §1, §2

[12] = test system: human histiocytic leukemia cells U937; assay: as above; settings: U937; 12 hours at 30° C., pH 7.5
Experimental: as §1, §2

[13] = Stereoselective hydrolysis of anticancer agent esters with human intestinum crassum cancer cells Colo 320; settings: human, colo 320 cells, pH 7.5
Experimental: as §1, §2

[14] = test system: human intestinum crassum cancer cells Colo 320; assay: as above; settings: Colo320; 12 hours at 30° C., pH 7.5
Experimental: as §1, §2

[15] = Stereoselective hydrolysis of anticancer agent esters with rat liver cancer cells Anr4; settings: rat, anr4 cells, pH 7.5
Experimental: as §1, §2

[16] = test system: rat liver cancer cells Anr4; assay: as above; settings: Anr4; 12 hours at 30° C., pH 7.5
Experimental: as §1, §2

O=C(OC[C@H]1O[C@@H](n2cc(F)c(=O)[nH]c2=O)[C@H](O)[C@@H]1O)C(Cc1ccccc1)NC(=O)C(F)(F)F (stereo partly drawn) [IIc, 5'-(RS)-(2-trifluoroacetamido-3-phenylpropionyl)-5-fluorouridine]
metabolised at 12 h [1]: 3.4% | enantiomer excess of the carboxylic acid produced by the hydrolysis (rat sarcoma cells XC): > 99 % e.e. | enantiomer excess of the carboxylic acid produced by the hydrolysis ([2]; rat whole blood, 12 hours at 30° C.): 41.8 % e.e. | metabolised at 12 h ([2]; rat, whole blood): 16.3% | enantiomer excess of the carboxylic acid produced by the hydrolysis [3]: > 99 % e.e. | metabolised at 12 h [4]: 20.6% | enantiomer excess of the carboxylic acid produced by the hydrolysis [5]: 19.0 % e.e. | enantiomer excess of the carboxylic acid produced by the hydrolysis ([6]; human whole blood, 12 hours at 30° C.): 66.9 % e.e. | metabolised at 12 h ([6]; human, whole blood): 36.1% | enantiomer excess of the carboxylic acid produced by the hydrolysis [7]: 87.8 % e.e. | metabolised at 12 h [8]: 1.9% | enantiomer excess of the carboxylic acid produced by the hydrolysis [9]: > 99 % e.e. | enantiomer excess of the carboxylic acid produced by the hydrolysis [10]: > 99 % e.e. | metabolised at 12 h [11]: 12.6% | enantiomer excess of the carboxylic acid produced by the hydrolysis [12]: 57.8 % e.e. | metabolised at 12 h [13]: 13.8% | enantiomer excess of the carboxylic acid produced by the hydrolysis [14]: 64.6 % e.e. | metabolised at 12 h [15]: 7.8% | enantiomer excess of the carboxylic acid produced by the hydrolysis [16]: 98.4 % e.e.
